Among the data in ChEMBL document CHEMBL1133807, “Regiospecific phosphohydrolases from Dictyostelium as tools for the chemoenzymatic synthesis of the enantiomers D-myo-inositol 1,2,4-trisphosphate and D-myo-inositol 2,3,6-trisphosphate: non-physiological, potential analogues of biologically active D-myo-inositol 1,3,4-trisphosphate” (Bioorg Med Chem Lett, 2001) are IC50 values, retold here.

A value given as a limit tells only on which side of the number the result lay.

The assay in a line: Inhibition of recombinant human Inositol 3,4,5,6 tetrakisphosphate 1-kinase using [3H]Ins(3,4,5,6)[…] as substrate.

For orientation: IC50 means the midpoint of a concentration-inhibition curve.

As for `O=P(O)(O)O[C@H]1[C@H](O)[C@@H](O)[C@H](OP(=O)(O)O)[C@H](OP(=O)(O)O)[C@@H]1O`, the IC50 is roughly 9 µM.
The result for `O=P(O)(O)O[C@H]1[C@H](O)[C@@H](O)[C@H](OP(=O)(O)O)[C@@H](OP(=O)(O)O)[C@H]1O` reads roughly 4 µM; that for `O=P(O)(O)O[C@@H]1[C@@H](O)[C@H](O)[C@@H](OP(=O)(O)O)[C@@H](OP(=O)(O)O)[C@H]1O`, no less than 300 µM.
